From patent publication US20160176855A1, “Novel Sterically Hindered Cyclic Amines” (CLARIANT INTERNATIONAL LTD, priority 2013, published 2016)

Assay: Solubility in solvents
Type: physicochemical

Solubility (in DMF): soluble
Solubility (in ethanol): soluble
Solubility (in hexane): insoluble
Solubility (in methanol): soluble
Solubility (in water): insoluble
SMILES: CC1(C)CC(NC(=O)c2ccc(C(=O)NC3CC(C)(C)NC(C)(C)C3)o2)CC(C)(C)N1 [Example 2, N,N′-bis(2,2,6,6-tetramethyl-4-piperidinyl)-2,5-furandicarboxamide]
